Test results: US20210292330A1, “PYRROLIDINE-FUSED HETEROCYCLES” (Erasca, Inc., priority 2020, published 2021)

Target: T1, KRAS 4B G12C protein (Homo sapiens, UniProt P01116, G12C)
T1 construct: This protein contained 188 amino acids in total, including an N-terminal 6-Histidine tag; made in house; host or cells: E. coli BL21
Assay: In vitro covalent adduct formation (CAF) assay by LC-MS
Type: binding
Details: compound 10 μM, protein 5 μM, 22° C., percentage of protein bound by the compound
Method: In vitro covalent adduct formation assay: Covalent adduct formation (CAF) reactions between Cys12 of the KRAS 4B G12C protein and some of the compounds of Table 1 were measured in vitro using liquid chromatography-mass spectrometry (LC-MS).
Recombinant Human KRAS 4B protein containing the G12C mutation was used in compound screening experiments. This protein contained 188 amino acids in total, including an N-terminal 6-Histidine tag, followed by a Tobacco Etch Virus (TEV) tag, followed by residues 1-169 of the native KRAS 4B sequence. The exact mass of the protein was 21,310 Da as determined by mass spectrometry. The full amino acid sequence is shown below:
The recombinant protein was expressed in E. coli BL21 cells and purified using affinity chromatography via a Ni-NTA column. […] Pure KRAS 4B G12C protein was diluted to a concentration of 5 μM in Tris Buffered Saline, pH 7.4. The compounds were dissolved in DMSO and added to the diluted protein to make a 10 μM concentration. The total DMSO concentration in the reaction was 4%. The reaction was mixed by pipetting and incubated at 22° C. for one hour. Aliquots of the reaction were taken over time and diluted 2:1 in 0.1% formic acid. The intact mass of the protein samples was measured by LC-MS using a QExactive+ mass spectrometer (Thermo Scientific). An amount of 500 ng total protein was injected onto a C8 reverse phase column, eluted with a seven-minute gradient of 30%-90% acetonitrile/0.1% formic acid, and analyzed for intact mass by the mass spectrometer. Adducts identified were confirmed to be within 1 Dalton of the expected mass, and the relative ratios of free:adduct protein were used to quantify the percentage of protein bound by the compound. CAF reactions were run in duplicate, with a typical variability of ±5%.

C=CC(=O)N1CCN(c2nc(OC[C@@H]3CCCN3C)nc3c2CN(C2CCCc4cccc(Cl)c42)C3)C[C@@H]1CC#N (some centres unmarked) [1-72]
CAF (10 minutes/60 minutes) at 10 micromolar: 10 minutes: 95%
CAF (10 minutes/60 minutes) at 10 micromolar: 60 minutes: 98%

C=CC(=O)N1CCN(c2nc(OC[C@@H]3CCCN3C)nc3c2CN(C2CCc4ccccc42)C3)CC1 (some centres unmarked) [1-190]
CAF (10 minutes/60 minutes) at 10 micromolar: 10 minutes: 6%
CAF (10 minutes/60 minutes) at 10 micromolar: 60 minutes: 26%

C=CC(=O)N1CCN(c2nc(OC[C@@H]3CCCN3C)nc3c2CN(C2CCc4ccccc42)C3)C[C@@H]1CC#N (some centres unmarked) [1-42]
CAF (10 minutes/60 minutes) at 10 micromolar: 10 minutes: 84%
CAF (10 minutes/60 minutes) at 10 micromolar: 60 minutes: 95%

C=CC(=O)N1CCN(c2nc(OC[C@@H]3CCCN3C)nc3c2CN(C(C)c2ccccc2Cl)C3)C[C@@H]1CC#N (some centres unmarked) [1-120]
CAF (10 minutes/60 minutes) at 10 micromolar: 10 minutes: 57%
CAF (10 minutes/60 minutes) at 10 micromolar: 60 minutes: 74%

C=CC(=O)N1CCN(c2nc(OC[C@@H]3CCCN3C)nc3c2CN(C2CCc4ccccc42)C3)C[C@@H]1C#N (stereo partly drawn) [1-155, (2R)-1-acryloyl-4-(6-(2,3-dihydro-1H-inden-1-yl)-2-(((S)-1-methylpyrrolidin-2-yl)methoxy)-6,7-dihydro-5H-pyrrolo[3,4-d]pyrimidin-4-yl)piperazine-2-carbonitrile]
CAF (10 minutes/60 minutes) at 10 micromolar: 10 minutes: 66%
CAF (10 minutes/60 minutes) at 10 micromolar: 60 minutes: 82%

C=C(F)C(=O)N1CCN(c2nc(OC[C@@H]3CCCN3C)nc3c2CN(Cc2cc(O)c(C)cc2C)C3)C[C@@H]1CC#N [1-327]
CAF (10 minutes/60 minutes) at 10 micromolar: 10 minutes: 0%
CAF (10 minutes/60 minutes) at 10 micromolar: 60 minutes: 3%

C=CC(=O)N1CCN(c2nc(OC[C@@H]3CCCO3)nc3c2CN(Cc2c(O)cccc2F)C3)C[C@@H]1CC#N [1-95]
CAF (10 minutes/60 minutes) at 10 micromolar: 10 minutes: 21%
CAF (10 minutes/60 minutes) at 10 micromolar: 60 minutes: 70%

C=CC(=O)N1CCN(c2nc(OC[C@@H]3CCCN3C)nc3c2CN(C2CC(C)(C)c4ccc(OC)cc42)C3)C[C@@H]1CC#N (some centres unmarked) [1-186]
CAF (10 minutes/60 minutes) at 10 micromolar: 10 minutes: 14%
CAF (10 minutes/60 minutes) at 10 micromolar: 60 minutes: 36%

C=C(F)C(=O)N1CCN(c2nc(OC[C@@H]3CCCN3C)nc3c2CN(Cc2c(CC)ccc(O)c2OC)C3)C[C@@H]1CC#N [1-313]
CAF (10 minutes/60 minutes) at 10 micromolar: 10 minutes: 87%
CAF (10 minutes/60 minutes) at 10 micromolar: 60 minutes: 95%

C=CC(=O)N1CCN(c2nc(OC[C@@H]3CCCN3C)nc3c2CN(Cc2cc(C)ccc2Cl)C3)C[C@@H]1CC#N [1-80]
CAF (10 minutes/60 minutes) at 10 micromolar: 10 minutes: 94%
CAF (10 minutes/60 minutes) at 10 micromolar: 60 minutes: 96%

C=CC(=O)N1CCN(c2nc(OC[C@@H]3CCCN3C)nc3c2CN(C(C)c2cc(F)ccc2C)C3)C[C@@H]1CC#N (some centres unmarked) [1-73]
CAF (10 minutes/60 minutes) at 10 micromolar: 10 minutes: 61%
CAF (10 minutes/60 minutes) at 10 micromolar: 60 minutes: 86%

C=CC(=O)N1C2COCC1CN(c1nc(OC[C@@H]3CCCN3C)nc3c1CN(Cc1cc(OC)ccc1Cl)C3)C2 [1-114]
CAF (10 minutes/60 minutes) at 10 micromolar: 10 minutes: 0%/ 0%
CAF (10 minutes/60 minutes) at 10 micromolar: 60 minutes: 0%/ 0%

C=CC(=O)N1CCN(c2nc(OC[C@@H]3CCCN3C)nc3c2CN(C(C)c2c(O)cccc2F)C3)C[C@@H]1CC#N (some centres unmarked) [1-111]
CAF (10 minutes/60 minutes) at 10 micromolar: 10 minutes: 87%
CAF (10 minutes/60 minutes) at 10 micromolar: 60 minutes: 96%

C=CC(=O)N1CC2COCC(C1)N2c1nc(OC[C@@H]2CCCN2C)nc2c1CN(Cc1cc(OC)ccc1Cl)C2 [1-88]
CAF (10 minutes/60 minutes) at 10 micromolar: 10 minutes: 0%/ 0%
CAF (10 minutes/60 minutes) at 10 micromolar: 60 minutes: 0%/ 0%

C=C(F)C(=O)N1CCN(c2nc(OC[C@@H]3CCCN3C)nc3c2CN(C2CCc4cccc(Cl)c42)C3)C[C@@H]1CC#N (some centres unmarked) [1-154]
CAF (10 minutes/60 minutes) at 10 micromolar: 10 minutes: 52%
CAF (10 minutes/60 minutes) at 10 micromolar: 60 minutes: 82%

C=CC(=O)N1CCN(c2nc(OC[C@@H]3CCCN3CCF)nc3c2CN(C2CCc4ccccc42)C3)C[C@@H]1CC#N (some centres unmarked) [1-151]
CAF (10 minutes/60 minutes) at 10 micromolar: 10 minutes: 81%
CAF (10 minutes/60 minutes) at 10 micromolar: 60 minutes: 91%

C=CC(=O)N1CCN(c2nc(OC[C@@H]3CC(F)(F)CN3C)nc3c2CN(C2CCc4ccccc42)C3)C[C@@H]1CC#N (some centres unmarked) [1-133]
CAF (10 minutes/60 minutes) at 10 micromolar: 10 minutes: 84%
CAF (10 minutes/60 minutes) at 10 micromolar: 60 minutes: 90%

C=CC(=O)N1CCN(c2nc(OC[C@@H]3CCCN3C)nc3c2CN(Cc2c(C)cc(C)c(O)c2C)C3)C[C@@H]1CC#N [1-324]
CAF (10 minutes/60 minutes) at 10 micromolar: 10 minutes: 31%
CAF (10 minutes/60 minutes) at 10 micromolar: 60 minutes: 78%

C=CC(=O)N1CCN(c2nc(OC[C@@H]3CCCN3C)nc3c2CN(Cc2cc(F)ccc2Cl)C3)[C@@H](C)C1 [1-34]
CAF (10 minutes/60 minutes) at 10 micromolar: 10 minutes: 0%
CAF (10 minutes/60 minutes) at 10 micromolar: 60 minutes: 14%

C=CC(=O)N1CCN(c2nc(OC[C@@H]3CCCN3C)nc3c2CN(Cc2cc(F)ccc2C(C)C)C3)C[C@@H]1CC#N [1-172]
CAF (10 minutes/60 minutes) at 10 micromolar: 10 minutes: 68%
CAF (10 minutes/60 minutes) at 10 micromolar: 60 minutes: 73%

C=CC(=O)N1CCN(c2nc(OC[C@@H]3CCCN3C)nc3c2CN(C2CCc4ccccc42)C3)C[C@@H]1CCC(N)=O (some centres unmarked) [1-231]
CAF (10 minutes/60 minutes) at 10 micromolar: 10 minutes: 0%
CAF (10 minutes/60 minutes) at 10 micromolar: 60 minutes: 1%

C=CC(=O)N1CCN(c2nc(OC[C@@H]3CCCN3C)nc3c2CN(Cc2c(F)cccc2OC)C3)C[C@@H]1CC#N [1-36]
CAF (10 minutes/60 minutes) at 10 micromolar: 10 minutes: 91%
CAF (10 minutes/60 minutes) at 10 micromolar: 60 minutes: 97%

C=CC(=O)N1CCN(c2nc(OC[C@@H]3CCCN3C)nc3c2CN(Cc2ccccc2C(C)C)C3)C[C@@H]1CC#N [1-168]
CAF (10 minutes/60 minutes) at 10 micromolar: 10 minutes: 95%
CAF (10 minutes/60 minutes) at 10 micromolar: 60 minutes: 97%

C=C(F)C(=O)N1CCN(c2nc(OC[C@@H]3CCCN3C)nc3c2CN(Cc2cc(O)c(Cl)cc2C)C3)C[C@@H]1CC#N [1-326, 2-[(2S)-4-{6-[(4-chloro-5-hydroxy-2-methylphenyl)methyl]-2-{[(2S)-1-methylpyrrolidin-2-yl]methoxy}-5H,7H-pyrrolo[3,4-d]pyrimidin-4-yl}-1-(2-fluoroprop-2-enoyl)piperazin-2-yl]acetonitrile]
CAF (10 minutes/60 minutes) at 10 micromolar: 10 minutes: 0%
CAF (10 minutes/60 minutes) at 10 micromolar: 60 minutes: 2%

C=CC(=O)N1CCN(c2nc(OC[C@@H]3CCCN3C(C)C)nc3c2CN(C2CCc4ccccc42)C3)C[C@@H]1CC#N (some centres unmarked) [1-176]
CAF (10 minutes/60 minutes) at 10 micromolar: 10 minutes: 88%
CAF (10 minutes/60 minutes) at 10 micromolar: 60 minutes: 94%

C=CC(=O)N1CCN(c2nc(OC[C@@H]3CCCN3C)nc3c2CN(C2COc4ccccc42)C3)C[C@@H]1CC#N (some centres unmarked) [1-106]
CAF (10 minutes/60 minutes) at 10 micromolar: 10 minutes: 59%
CAF (10 minutes/60 minutes) at 10 micromolar: 60 minutes: 75%

C=CC(=O)N1CCN(c2nnc(OC)c3c2CN(Cc2cc(O)ccc2C)C3)[C@@H](C)C1 [1-37]
CAF (10 minutes/60 minutes) at 10 micromolar: 10 minutes: 0%/ 0%
CAF (10 minutes/60 minutes) at 10 micromolar: 60 minutes: 0%/ 0%

C=CC(=O)N1CCN(c2nc(OC[C@@H]3CCCN3C)nc3c2CN(C2CCc4ccccc42)C3)C2CS(=O)(=O)CC21 (some centres unmarked) [1-210]
CAF (10 minutes/60 minutes) at 10 micromolar: 10 minutes: 0%/ 0%
CAF (10 minutes/60 minutes) at 10 micromolar: 60 minutes: 0%/ 0%

C=CC(=O)N1CCN(c2nc(OC[C@@H]3CCCN3C)nc3c2CN(C2CCc4ccccc42)C3)C[C@@H]1C[S+](C)[O-] (some centres unmarked) [1-209]
CAF (10 minutes/60 minutes) at 10 micromolar: 10 minutes: 0%/ 0%
CAF (10 minutes/60 minutes) at 10 micromolar: 60 minutes: 0%/ 0%

C=CC(=O)N1CC2CC1CN2c1nc(OC[C@@H]2CCCN2C)nc2c1CN(C1CCc3ccccc31)C2 (some centres unmarked) [1-249]
CAF (10 minutes/60 minutes) at 10 micromolar: 10 minutes: 0%/ 0%
CAF (10 minutes/60 minutes) at 10 micromolar: 60 minutes: 0%/ 0%

C=CC(=O)N1CCN(c2nc(OC[C@@H]3CCCN3C)nc3c2CN(Cc2ccccc2C(C)CC)C3)C[C@@H]1CC#N (some centres unmarked) [1-188]
CAF (10 minutes/60 minutes) at 10 micromolar: 10 minutes: 47%
CAF (10 minutes/60 minutes) at 10 micromolar: 60 minutes: 79%

C=CC(=O)N1CCN(c2nc(OC[C@@H]3CCCN3C)nc3c2CN(Cc2c(C)cccc2C)C3)[C@@H](C)C1 [1-3]
CAF (10 minutes/60 minutes) at 10 micromolar: 10 minutes: 6%
CAF (10 minutes/60 minutes) at 10 micromolar: 60 minutes: 33%

C=CC(=O)N1CCN(c2nc(OCCOC)nc3c2CN(C2CCc4ccccc42)C3)C[C@@H]1CC#N (some centres unmarked) [1-129]
CAF (10 minutes/60 minutes) at 10 micromolar: 10 minutes: 26%
CAF (10 minutes/60 minutes) at 10 micromolar: 60 minutes: 64%

C=CC(=O)N1CCN(c2nc(OC[C@@H]3CCCN3C)nc3c2CN(Cc2ccccc2C)C3)C[C@@H]1CC#N [1-45]
CAF (10 minutes/60 minutes) at 10 micromolar: 10 minutes: 94%
CAF (10 minutes/60 minutes) at 10 micromolar: 60 minutes: 98%
